Source: patent US20040127405A1, “Methods for treating lung infections and lung tumors and for treating and preventing lung metastases” (priority 2000, published 2004)
Where two headings read alike, the source gives them in different places. Ends that are not written are not given here. * marks the point of attachment. S‑(2,3-bisacyloxypropyl) = S-(2,3-bisacyloxypropyl) group on the cysteine sulfur (lipopeptide), acyl preferably palmitoyl; X1 = S‑(2,3-bispalmitoyloxy-(2R)-propyl)Cys, CCCCCCCCCCCCCCCC(=O)OC[C@H](CSC[C@H](N)C(=O)*)OC(=O)CCCCCCCCCCCCCCC

What was measured:
[1] = tested on: lungs of rats; test: Leukocyte counts in bronchoalveolar lavage (BAL) after intratracheal instillation in rats; format: in vivo, rat
Description: In the majority of experiments, the biologically active, chemically synthesized 2-R-MALP-2 stereoisomer, corresponding to the natural compound, was used for intracheal administration. […] Both compounds were synthesized and purified as described in Example 1, and kept as 1 mg/ml stock solutions in a 33 vol. % 2-propanol, 67 vol. % water mixture. Stock solutions were diluted with pyrogen-free 0.9 wt. % sodium chloride solutions (Braun, Melsungen, Germany) shortly before application. Solvent controls consisted of corresponding mixtures without MALP-2.
Intratracheal administration of the compounds was performed under short ether anesthesia. During this process, rats were suspended in a hanging position by a rubber band fixed to the rats' upper jaw teeth. After intubation of the trachea via the oral cavity, a total volume of 500 μl was administered. Before administration, the correct position of the tube was checked by blowing air into the lung.
The animals' lungs were lavaged 10 times with 5 ml of cold 0.9 wt. % NaCl solutions via a tracheal cannula. The lavage fluid was pooled, and an average of >90% of the volume was recovered. The bronchoalveolar (BAL) cells were processed for blood leukocytes as described herein.
The total cell numbers in the lung compartments (BAL, marginal pool, and interstitium) and in the blood were determined in a Neubauer counting chamber. Differential cell counts were assessed on cytospins. The slides were fixed in acetone for 10 min and washed with Tris-buffered saline containing 0.1 wt. % Tween 20. Cells were stained with a monoclonal antibody cocktail against lymphocytes (R73 for T cells, O×12 for B cells, and 3.2.3 for natural killer cells [all cells available from Serotec, Oxford, United Kingdom]). At least 400 cells were differentiated on each slide. In addition, neutrophils and macrophages were morphologically identified by May-Grünwald and/or Giemsa staining.
For flow cytometry, cells were transferred into microtiter plates (10^6 cells/well) and washed twice in PBS containing 1% BSA and 0.1% NaN3. The staining was performed with the appropriate primary antibodies described below. After the cells were washed twice, the secondary antibody was incubated for 30 min at 4° C. The cells were analyzed by using a FACScan flow cytometer (Becton Dickinson, Mountain View, Calif.), focusing on the lymphocyte cluster. CD8^+ T cells were identified as R73^+ O×8^+; CD4^+ T cells were identified as R73^+ O×8^−; memory CD4^+ T cells were identified as O×22^− W3/25^high; naive T cells were identified as O×22^+ W3/25^high; and monocytes were identified as O×22^− W3/25^low. Dendritic cells were identified as low-autofluorescence cells, non-T and non-B lymphocytes, and double positive for O×6 and O×62 (Lambrecht et al., 1999. Am. J. Respir. Cell. Mol. Biol. 20:1165-1174). All primary antibodies were monoclonal mouse anti-rat (Serotec). Unconjugated antibodies were detected by using phycoerythrin-conjugated secondary antibody (KPE; Dianova, Hamburg, Germany) and biotinylated primary antibodies with Red 670-streptavidin (Gibco, Gaithersburg, Md.). Isotype-matched antibodies served as a control.
To investigate whether the lipopeptide MALP-2 would be able to exert effects in the lungs, 2.5 μg of the natural stereoisomer 2R-MALP-2 was instilled into the lungs of anesthetized rats. […] Taken together, only the natural 2R stereoisomer of MALP-2 specifically affected the cell counts and distribution of subsets in the BAL.
With respect to FIG. 2, the data are means±the standard error of the mean (SEM; n=six per group).
With respect to FIG. 3, rats were sacrificed at the indicated time points after instillation of 2.5 μg of 2R-MAPL-2, and leukocytes in the bronchoalveolar lavage (BAL) were determined as described. The data are means±the SEM (n=5 per group).
With respect to FIG. 4, data are means±the SEM (n=8 per group). […]

[2] = tested on: lymphatic tissue in the bronchial mucosa; test: Lymphatic tissue in the bronchial mucosa after repeated inhalation in rats; format: in vivo, rat; details: inhalation by mask, 30 μg doses on six occasions at one-week intervals
Description: They were maintained under specific-pathogen-free conditions until administration of compounds in accordance with the invention.
With the aid of a mask, rats were made to inhale 30 μg doses of MALP-2 on six occasions at one-week intervals.

[3] = intraperitoneal injection of a few μg; cited from earlier work
[4] = tested on: MADB106 tumor cells; test: Lung metastasis after intravenous MADB106 tumor cell inoculation in F344 rats; details: intratracheal
[5] = 3 μg instilled into the trachea
[6] = 2.5 μg intratracheal, three days, P<0.01, FIG. 2
[7] = three days after application, FIG. 4

MALP-2: macrophage-activating lipopeptide MALP-2 (an S-(2,3-bisacyloxypropyl)-cysteine peptide) isolated from Mycoplasma fermentans; stereochemistry not stated where tested (C(S‑(2,3-bisacyloxypropyl))GNNDESNISFKEK; not fully specified; also: acyl groups not given here, alternative: 2,3-diacylglyceryl-serinyl)
number of leukocytes in the respiratory tracts and the alveolar space (BAL) ([1]; 3 μg instilled into the trachea, after a few hours, lasts for a few days, FIG. 1): increase in the number of leukocytes
lymphatic tissue in the bronchial mucosa [2]: increase in the lymphatic tissue
adverse effect on the animals [5]: not detectable
food consumption, bodyweight, activity and behavior [5]: not noteworthy
food consumption, bodyweight, activity and behavior (inhalation, 30 μg doses on six occasions at one-week intervals): clinically not noteworthy
leukocyte infiltration [3]: brought about leukocyte infiltration
effects on lung colonization of tumor cells ([4]; one day after tumor cell injection, FIG. 5B): no effects
reduction of lung metastasis compared with sham-injected animals ([4]; simultaneously with tumor cell inoculation, counted 3 wk after inoculation, P=0.0006, FIG. 5A): 44%
effects on lung colonization of tumor cells ([4]; three days after tumor cell injection, FIG. 5C): no effects

S-[2,3-bispalmitoyloxy-(2R)-propyl]cysteinyl-GNNDESNISFKEK (X1-GNNDESNISFKEK) [2R-MALP-2]
time of maximal lymphocyte accumulation in the BAL ([1]; 2.5 μg intratracheal): 72 h
lymphocyte numbers in the BAL ([1]; 2.5 μg intratracheal, 24 h (0 h: [0.04±0.01]×10^6), mean±SEM): 0.6±0.1 ×10^6
lymphocyte numbers in the BAL ([1]; 2.5 μg intratracheal, 48 h, mean±SEM): 0.9±0.1 ×10^6
lymphocyte numbers in the BAL (maximal accumulation) ([1]; 2.5 μg intratracheal, 72 h after instillation, mean±SEM): 1.2±0.1 ×10^6
all investigated cell types in the BAL ([1]; 2.5 μg intratracheal, after 10 days): returned to control levels
increase of total cell number in the BAL ([1]; 2.5 μg intratracheal, six hours after treatment, FIG. 3): about 10 -fold
total cell number in the BAL ([1]; 2.5 μg intratracheal, three days after application, vs vehicle control, FIG. 2): clearly increased
alveolar macrophages (AM) in the BAL [1, 6]: significant increase
lymphocytes in the BAL [1, 6]: significant increase
neutrophils in the BAL [1, 6]: significant increase
time of maximal cell count in the BAL ([1]; 2.5 μg intratracheal, FIG. 3): 24 h
increase in B cells and monocytes in the BAL [1, 7]: lower, but still significant
increase in T lymphocytes, NK cells and dendritic cells in the BAL [1, 7]: highest relative increase
increase of leukocyte subpopulations in the BAL (flow cytometry) ([1]; three days after application, P<0.01 vs control vehicle, FIG. 4): significant
